Data on 19 molecules can be found in patent US20130261130A1, “NEUROTRYPSIN INHIBITORS” (priority 2010, published 2013).

pIC50: −log10 of the molar value.

The target of this assay is T1, human neurotrypsin (Homo sapiens, UniProt P56730).
T1 sequence (P56730 21-875): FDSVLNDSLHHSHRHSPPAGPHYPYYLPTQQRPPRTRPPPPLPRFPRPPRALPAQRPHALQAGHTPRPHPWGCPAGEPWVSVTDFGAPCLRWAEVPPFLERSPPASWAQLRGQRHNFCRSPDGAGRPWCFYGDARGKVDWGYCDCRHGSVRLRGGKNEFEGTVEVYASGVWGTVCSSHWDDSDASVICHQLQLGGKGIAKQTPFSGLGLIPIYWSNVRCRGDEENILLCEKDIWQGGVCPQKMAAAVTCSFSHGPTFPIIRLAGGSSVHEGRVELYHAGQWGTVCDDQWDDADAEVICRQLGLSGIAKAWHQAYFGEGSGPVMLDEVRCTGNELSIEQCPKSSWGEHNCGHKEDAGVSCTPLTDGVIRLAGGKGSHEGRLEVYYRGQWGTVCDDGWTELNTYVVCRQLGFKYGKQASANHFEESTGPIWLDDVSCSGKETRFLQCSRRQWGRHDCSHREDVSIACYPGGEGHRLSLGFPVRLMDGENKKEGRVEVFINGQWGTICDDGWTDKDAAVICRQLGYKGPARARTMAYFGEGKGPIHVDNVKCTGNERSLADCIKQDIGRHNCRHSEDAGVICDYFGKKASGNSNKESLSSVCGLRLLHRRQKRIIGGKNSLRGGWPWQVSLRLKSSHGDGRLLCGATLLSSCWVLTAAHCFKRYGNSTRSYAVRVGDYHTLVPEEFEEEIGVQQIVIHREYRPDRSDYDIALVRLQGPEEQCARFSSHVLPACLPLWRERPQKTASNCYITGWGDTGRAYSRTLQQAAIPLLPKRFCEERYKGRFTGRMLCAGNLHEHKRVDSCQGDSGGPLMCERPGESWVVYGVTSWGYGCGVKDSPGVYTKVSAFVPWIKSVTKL
The assay is described as follows: Determination of IC50 for human neurotrypsin. To be noted: human neurotrypsin; method of WO 2006/1103261; read-out: Neurotrypsin IC50. Type of assay: biochemical. On the procedure: Assessment of the potency of compounds of examples 1-311 in inhibiting the enzymatic activity of human neurotrypsin was performed according to the method described in patent application WO 2006/1103261
As to `CC(C)(C)c1cccc(NC(=O)c2ccc(C(=O)O)c(NC(=O)c3sc4ccccc4c3Cl)c2)c1` [Example 75], the pIC50 was 5.25. For `O=C(O)CN(C(=O)c1ccc(C(=O)O)c(NC(=O)c2sc3ccccc3c2Cl)c1)c1ccc(Cl)cc1` [Example 74], the negative logarithm of the IC50 (pIC50) is 4.58. Regarding `COc1ccc2c(Cl)c(C(=O)Nc3cc(C(=O)Nc4ccc(Cl)cc4)ccc3C(=O)O)sc2c1` [Example 142, 2-(3-Chloro-6-methoxy-benzo[b]thiophene-2-carbox)-4-(4-chlorophenylcarbamoyl)-benzoic acid], the pIC50 was 5.66. Turning to `O=C(O)c1ccc(C(=O)Nc2ccc(Cc3ccccc3)cc2)c(NC(=O)c2sccc2Cl)c1` [Example 196, 4-(4-Benzylphenyl-carbamoyl)-3-(3-chloro-thiophene-2-carboxamido)-benzoic acid], the pIC50 is 4.99.

Consider `O=C(O)c1ccc(-c2ccccc2Cl)cc1NC(=O)c1sc2ccccc2c1Cl` [Example 250], for which the pIC50 is 5.62. Turning to `CC(NC(=O)c1ccc(NC(=O)c2ccc(-c3ccc(Cl)cc3)s2)c(C(=O)O)c1)c1ccc(Cl)cc1` (stereo not shown) [Example 110], the pIC50 was 5.47. On to `Cc1cccc(C)c1C1CCN(C(=O)c2ccc(NC(=O)c3sc4ccccc4c3Cl)c(C(=O)O)c2)CC1` [Example 121], for which the pIC50 is 5.31.

Regarding `O=C(NCC1CCCCC1)c1ccc(NC(=O)c2ccc(-c3nc4cc(Cl)c(Cl)cc4[nH]3)cc2)c(C(=O)O)c1` [Example 126], the pIC50 was 5.92. For `O=C(O)c1cc(C(=O)N2CCC(c3ccc(Cl)cc3)C2)ccc1NC(=O)c1sc2ccccc2c1Cl` (stereo not shown) [Example 108], the pIC50 was 5.41. As to `O=C(O)c1cc(C(=O)N2CCC(Cc3ccccc3)CC2)ccc1NC(=O)c1sc2ccccc2c1Cl` [Example 157, 5-(4-Benzylpiperidine-1-carbonyl)-2-(3-chlorobenzo[b]thiophene-2-carboxamido)benzoic acid], the pIC50 was 5.42.

In the case of `O=C(O)c1cc(NC(=O)c2sc3ccccc3c2Cl)ccc1C(=O)Nc1ccc(Cl)cc1` [Example 271], the negative-log IC50 (pIC50) was 4.85.

`CC(C)CN(CC(C)C)C(=O)c1ccc(NC(=O)c2ccc(-c3nc4cc(Cl)c(Cl)cc4n3C)cc2)c(C(=O)O)c1` [Example 46, 2-(4-(5,6-Dichloro-1-methyl-1H-benzo[d]imidazol-2-yl)benzamido)-5-(diisobutyl-carbamoyl)benzoic acid]: the pIC50 was 5.47. For the molecule `O=C(Nc1ccc(C(=O)N2CCC(c3ccccc3)CC2)cc1C(=O)O)c1cc2ccc(Cl)cc2s1` [Example 163, 2-(6-Chlorobenzo[b]-thiophene-2-carboxamido)-5-(4-phenylpiperidine-1-carbonyl)benzoic acid], the negative logarithm of the IC50 (pIC50) was 5.59. The figure for `CC(C)CN(C(=O)c1ccc(NC(=O)c2ccc(-c3nc4cc(Cl)c(Cl)cc4[nH]3)cc2)c(C(=O)O)c1)c1ccc(Cl)cc1` [Example 45, 5-(N-4-Chlorophenyl-N-isobutylcarbamoyl)-2-(4-(5,6-dichloro-1H-benzo[d]-imidazol-2-yl)benzamido)-benzoic acid] is 5.82; for `O=C(Nc1ccc(Cl)cc1)c1ccc(C(=O)O)c(NC(=O)c2ccc(-c3ccccn3)s2)c1` [Example 144, 4-(4-Chlorophenyl-carbamoyl)-2-(5-(pyrid-2-yl)-thiophene-2-carboxamido)-benzoic acid] it is 4.66. As for `O=C(Nc1ccc(C(=O)NC2CCCCC2)cc1C(=O)O)c1ccc(-c2nc3cc(Cl)c(Cl)cc3[nH]2)cc1` [Example 125], the pIC50 was 5.46. With `O=C(Nc1ccc(Cl)cc1)c1ccc(C(=O)O)c(NC(=O)c2cc(Br)cc(Br)c2O)c1` [Example 143, 4-(4-Chlorophenyl-carbamoyl)-2-(3,5-dibromo-2-hydroxybenzamido)benzoic acid], the pIC50 was 5.41. As for `Cn1c(-c2ccc(C(=O)Nc3ccc(C(=O)Nc4ccc(Cl)cc4)cc3C(=O)O)cc2)nc2cc(Cl)c(Cl)cc21` [Example 135], the pIC50 is 6.05. `O=C(Nc1ccc(Cl)cc1)c1ccc(C(=O)O)c(NC(=O)c2cc3ccc(Cl)cc3s2)c1` [Example 23]: the pIC50 was 5.59.
